# Test results published in patent US20110200992A1, “Biological Compositions, Articles and Methods for Monitoring Sterilization Processes” (priority 2008, published 2011).
# Tests used:
# Type in all cases: cell-based
# [1] = system: spores of Gb stearothermophilus; assay: Fluorescence intensity vs. time of spore suspension with dye, with or without nutrients (Example 1); settings: Acridine Orange 6.6 μM, ex 485 nm, em 530 nm, 50° C.; for Fluorescence Intensity of Spore Suspension with Dye: no nutrients
# Description: Spore suspensions of Gb. stearothermophilus (also known as Bacillus stearothermophilus) were prepared by known methods as described in Example 1 of U.S. Pat. No. 5,418,167 ([…] et al.). Modifications of these methods and alternative methods known to those skilled in the art may also be used for preparing these suspensions. Representative cell-permeant dyes from the following classes: green fluorescent nucleic acid stains, red fluorescent nucleic acid stains, and Acridine Orange were tested with spores of Gb stearothermophilus. Specifically, 100 microliters of the spore suspension described above were combined with 200 microlitres of a 1:5000 dilution of the dye with Sterile Water For Irrigation (Baxter, Deerfield, Ill.) or with nutrients glucose, fructose, and potassium chloride in water (1 mg/ml, 1 mg/ml, and 3.3 mgs/ml, respectively), 0.2 M valine, 0.04 M isoleucine, 0.2 M methionine, 4 mg/ml inosine, and 0.4 M alanine. The fluorescence intensity of each of the resulting suspensions was monitored at an incubation temperature of 50° C., using the following dyes at the concentrations and excitation and emission wavelengths indicated below: SYTO 24: 1.0 μM (micromolar); excitation at 485 nm, emission at 530 nm; Acridine Orange: 6.6 μM; excitation at 485 nm, emission at 530 nm; SYTO 64: 1.0 μM; excitation at 530 nm, emission at 620 nm. The dyes are available from Invitrogen, (Carlsbad, Calif.). Fluorescence was monitored in a Biotek FL600 fluorimeter or Biotek Synergy 4 plate reader (Biotek, Winooski, Vt.).
# [2] = system: Gb. stearothermophilus spores; assay: Fluorescence with spores after dye medium was exposed to sterilization temperature, autoclaved vs not autoclaved (Example 2); settings: ex 485/em 530 nm, 50° C.
# Description: Dilutions of a Gb. stearothermophilus spore suspension described above were subjected to heat shock treatment at 80° C. for 10 min. The dilutions were prepared using Sterile Water For Irrigation (Baxter, Deerfield, Ill.) and tested at a final population of 1×10^6 and 0 spores. The spore dilutions (100 microlitres) were combined with 200 microlitres of medium, consisting of Acridine Orange and nutrients as described in Example 1, that had been subjected to a 15 min 121° C. (250° F.) vacuum assisted cycle in a AMSCO Scientific SG-120 Eagle/Century Series steam sterilizer (Steris, Mentor Ohio), and each of the resulting mixtures was added to a well of a plate. Un-autoclaved medium was used as a control. […] The experiment was performed with both heat shocked and non-heat shocked spores. A summary of the normalized data is listed below in Tables 2a-2c.
# [3] = system: Gb. stearothermophilus spores; assay: Fluorescence with live and dead (sterilized) spores, dye and nutrient medium treated with the same sterilizing conditions (Example 3)
# Description: A glass vial containing 1 mL of 1×E7 Gb. stearothermophilus spore suspension described above and a glass vial containing 1 mL of medium containing a cell-permeant fluorescent dye as described in Example 1 were placed in a sterilizer and run in a 15 min 121° C. (250° F.) vacuum assisted cycle in a AMSCO Scientific SG-120 Eagle/Century Series steam sterilizer (Steris, Mentor Ohio), and 100 microlitres of the resulting autoclaved spore suspensions and medium were subsequently tested. Un-autoclaved spore suspensions that were subjected to a heat shock treatment at 80° C. for 10 min were tested simultaneously as a control. Spore suspensions (100 microlitres) were combined with 200 microlitres of medium, consisting of Acridine orange dye and nutrients as described in Example 1, that was run through the same steam sterilization cycle as the spores, and each resulting mixture was added to a well of a plate. The plate was subsequently placed in a preheated plate reader (Synergy 4, BioTek, Winooski, Vt.) at 50° C. and incubated for 180 min, during which fluorescence intensity readings using excitation and emission wavelengths of 520 and 580, respectively were taken for at total of 19 readings.
smiles,measurement,setting,value
CN(C)c1ccc2cc3ccc(N(C)C)cc3nc2c1 [Acridine Orange],Fluorescence Intensity of Spore Suspension with Dye,[1]; 0 min,2005
same,Fluorescence Intensity of Spore Suspension with Dye,[1]; 10 min,2665
same,Fluorescence Intensity of Spore Suspension with Dye,[1]; 20 min,4069
same,Fluorescence Intensity of Spore Suspension with Dye,[1]; 30 min,5655
same,Fluorescence Intensity of Spore Suspension with Dye,[1]; 40 min,7091
same,Fluorescence Intensity of Spore Suspension with Dye and Nutrients,[1]; 0 min,2687
same,Fluorescence Intensity of Spore Suspension with Dye and Nutrients,[1]; 10 min,2777
same,Fluorescence Intensity of Spore Suspension with Dye and Nutrients,[1]; 20 min,4241
same,Fluorescence Intensity of Spore Suspension with Dye and Nutrients,[1]; 30 min,7842
same,Fluorescence Intensity of Spore Suspension with Dye and Nutrients,[1]; 40 min,11708
same,Fluorescence intensity (normalized),"[2]; Autoclaved (15 min 121° C.) dye + nutrient medium, heat shocked E6 germinating spores, 0 min",0
same,Fluorescence intensity (normalized),"[2]; Autoclaved (15 min 121° C.) dye + nutrient medium, heat shocked E6 germinating spores, 30 min",6211.5
same,Fluorescence intensity (normalized),"[2]; Autoclaved (15 min 121° C.) dye + nutrient medium, heat shocked E6 germinating spores, 60 min",8652.5
same,Fluorescence intensity (normalized),"[2]; Autoclaved (15 min 121° C.) dye + nutrient medium, heat shocked E6 germinating spores, 90 min",9955.5
same,Fluorescence intensity (normalized),"[2]; Autoclaved (15 min 121° C.) dye + nutrient medium, heat shocked E6 germinating spores, 120 min",10376.5
same,Fluorescence intensity (normalized),"[2]; Autoclaved (15 min 121° C.) dye + nutrient medium, heat shocked E6 germinating spores, 150 min",10694.25
same,Fluorescence intensity (normalized),"[2]; Autoclaved (15 min 121° C.) dye + nutrient medium, heat shocked E6 germinating spores, 180 min",10803
same,Fluorescence intensity (normalized),"[2]; Autoclaved (15 min 121° C.) dye + nutrient medium, heat shocked, 0 spores, 0 min",0
same,Fluorescence intensity (normalized),"[2]; Autoclaved (15 min 121° C.) dye + nutrient medium, heat shocked, 0 spores, 30 min",522.25
same,Fluorescence intensity (normalized),"[2]; Autoclaved (15 min 121° C.) dye + nutrient medium, heat shocked, 0 spores, 60 min",588.75
same,Fluorescence intensity (normalized),"[2]; Autoclaved (15 min 121° C.) dye + nutrient medium, heat shocked, 0 spores, 90 min",779.75
same,Fluorescence intensity (normalized),"[2]; Autoclaved (15 min 121° C.) dye + nutrient medium, heat shocked, 0 spores, 120 min",870
same,Fluorescence intensity (normalized),"[2]; Autoclaved (15 min 121° C.) dye + nutrient medium, heat shocked, 0 spores, 150 min",886.5
same,Fluorescence intensity (normalized),"[2]; Autoclaved (15 min 121° C.) dye + nutrient medium, heat shocked, 0 spores, 180 min",960.5
same,Fluorescence intensity (normalized),"[2]; Autoclaved (15 min 121° C.) dye + nutrient medium, non-heat shocked E6 germinating spores, 0 min",0
same,Fluorescence intensity (normalized),"[2]; Autoclaved (15 min 121° C.) dye + nutrient medium, non-heat shocked E6 germinating spores, 14 min",609
same,Fluorescence intensity (normalized),"[2]; Autoclaved (15 min 121° C.) dye + nutrient medium, non-heat shocked E6 germinating spores, 30 min",2599
same,Fluorescence intensity (normalized),"[2]; Autoclaved (15 min 121° C.) dye + nutrient medium, non-heat shocked E6 germinating spores, 44 min",4753
same,Fluorescence intensity (normalized),"[2]; Autoclaved (15 min 121° C.) dye + nutrient medium, non-heat shocked E6 germinating spores, 58 min",6508
same,Fluorescence intensity (normalized),"[2]; Autoclaved (15 min 121° C.) dye + nutrient medium, non-heat shocked, 0 spores, 0 min",0
same,Fluorescence intensity (normalized),"[2]; Autoclaved (15 min 121° C.) dye + nutrient medium, non-heat shocked, 0 spores, 14 min",−212
same,Fluorescence intensity (normalized),"[2]; Autoclaved (15 min 121° C.) dye + nutrient medium, non-heat shocked, 0 spores, 30 min",−263
same,Fluorescence intensity (normalized),"[2]; Autoclaved (15 min 121° C.) dye + nutrient medium, non-heat shocked, 0 spores, 44 min",−278
same,Fluorescence intensity (normalized),"[2]; Autoclaved (15 min 121° C.) dye + nutrient medium, non-heat shocked, 0 spores, 58 min",−287
same,Fluorescence intensity (normalized),"[2]; Not autoclaved dye + nutrient medium, heat shocked E6 germinating spores, 0 min",0
same,Fluorescence intensity (normalized),"[2]; Not autoclaved dye + nutrient medium, heat shocked E6 germinating spores, 30 min",11623.75
same,Fluorescence intensity (normalized),"[2]; Not autoclaved dye + nutrient medium, heat shocked E6 germinating spores, 60 min",17121.25
same,Fluorescence intensity (normalized),"[2]; Not autoclaved dye + nutrient medium, heat shocked E6 germinating spores, 90 min",18928.25
same,Fluorescence intensity (normalized),"[2]; Not autoclaved dye + nutrient medium, heat shocked E6 germinating spores, 120 min",19653.75
same,Fluorescence intensity (normalized),"[2]; Not autoclaved dye + nutrient medium, heat shocked E6 germinating spores, 150 min",19884.5
same,Fluorescence intensity (normalized),"[2]; Not autoclaved dye + nutrient medium, heat shocked E6 germinating spores, 180 min",20008.25
same,Fluorescence intensity (normalized),"[2]; Not autoclaved dye + nutrient medium, heat shocked, 0 spores, 0 min",0
same,Fluorescence intensity (normalized),"[2]; Not autoclaved dye + nutrient medium, heat shocked, 0 spores, 30 min",813
same,Fluorescence intensity (normalized),"[2]; Not autoclaved dye + nutrient medium, heat shocked, 0 spores, 60 min",875.75
same,Fluorescence intensity (normalized),"[2]; Not autoclaved dye + nutrient medium, heat shocked, 0 spores, 90 min",996.25
same,Fluorescence intensity (normalized),"[2]; Not autoclaved dye + nutrient medium, heat shocked, 0 spores, 120 min",1099
same,Fluorescence intensity (normalized),"[2]; Not autoclaved dye + nutrient medium, heat shocked, 0 spores, 150 min",1114.5
same,Fluorescence intensity (normalized),"[2]; Not autoclaved dye + nutrient medium, heat shocked, 0 spores, 180 min",990.25
same,Fluorescence intensity (normalized),"[2]; Not autoclaved dye + nutrient medium, non-heat shocked E6 germinating spores, 0 min",00
same,Fluorescence intensity (normalized),"[2]; Not autoclaved dye + nutrient medium, non-heat shocked E6 germinating spores, 14 min",597
same,Fluorescence intensity (normalized),"[2]; Not autoclaved dye + nutrient medium, non-heat shocked E6 germinating spores, 30 min",2878
same,Fluorescence intensity (normalized),"[2]; Not autoclaved dye + nutrient medium, non-heat shocked E6 germinating spores, 44 min",5314
same,Fluorescence intensity (normalized),"[2]; Not autoclaved dye + nutrient medium, non-heat shocked E6 germinating spores, 58 min",7289
same,Fluorescence intensity (normalized),"[2]; Not autoclaved dye + nutrient medium, non-heat shocked, 0 spores, 0 min",0
same,Fluorescence intensity (normalized),"[2]; Not autoclaved dye + nutrient medium, non-heat shocked, 0 spores, 14 min",−334
same,Fluorescence intensity (normalized),"[2]; Not autoclaved dye + nutrient medium, non-heat shocked, 0 spores, 30 min",−456
same,Fluorescence intensity (normalized),"[2]; Not autoclaved dye + nutrient medium, non-heat shocked, 0 spores, 44 min",−484
same,Fluorescence intensity (normalized),"[2]; Not autoclaved dye + nutrient medium, non-heat shocked, 0 spores, 58 min",−476
same,Fluorescence intensity (normalized),"[3]; Autoclaved (dead) Spores, E6, ex 520/em 580, 50° C., 0 min",0
same,Fluorescence intensity (normalized),"[3]; Autoclaved (dead) Spores, E6, ex 520/em 580, 50° C., 30 min",−1468.25
same,Fluorescence intensity (normalized),"[3]; Autoclaved (dead) Spores, E6, ex 520/em 580, 50° C., 60 min",−103.5
same,Fluorescence intensity (normalized),"[3]; Autoclaved (dead) Spores, E6, ex 520/em 580, 50° C., 90 min",−9.25
same,Fluorescence intensity (normalized),"[3]; Autoclaved (dead) Spores, E6, ex 520/em 580, 50° C., 120 min",−49.25
same,Fluorescence intensity (normalized),"[3]; Autoclaved (dead) Spores, E6, ex 520/em 580, 50° C., 180 min",−307
same,Fluorescence intensity (normalized),"[3]; Autoclaved Spores, 0, ex 520/em 580, 50° C., 0 min",0
same,Fluorescence intensity (normalized),"[3]; Autoclaved Spores, 0, ex 520/em 580, 50° C., 30 min",375.25
same,Fluorescence intensity (normalized),"[3]; Autoclaved Spores, 0, ex 520/em 580, 50° C., 60 min",1347.25
same,Fluorescence intensity (normalized),"[3]; Autoclaved Spores, 0, ex 520/em 580, 50° C., 90 min",1533.75
same,Fluorescence intensity (normalized),"[3]; Autoclaved Spores, 0, ex 520/em 580, 50° C., 120 min",1491.25
same,Fluorescence intensity (normalized),"[3]; Autoclaved Spores, 0, ex 520/em 580, 50° C., 180 min",1427.75
same,Fluorescence intensity (normalized),"[3]; Live Spores (heat shocked), E6, autoclaved dye + nutrient medium, ex 520/em 580, 50° C., 0 min",0
same,Fluorescence intensity (normalized),"[3]; Live Spores (heat shocked), E6, autoclaved dye + nutrient medium, ex 520/em 580, 50° C., 30 min",6211.5
same,Fluorescence intensity (normalized),"[3]; Live Spores (heat shocked), E6, autoclaved dye + nutrient medium, ex 520/em 580, 50° C., 60 min",8652.5
same,Fluorescence intensity (normalized),"[3]; Live Spores (heat shocked), E6, autoclaved dye + nutrient medium, ex 520/em 580, 50° C., 90 min",9955.5
same,Fluorescence intensity (normalized),"[3]; Live Spores (heat shocked), E6, autoclaved dye + nutrient medium, ex 520/em 580, 50° C., 120 min",10376.5
same,Fluorescence intensity (normalized),"[3]; Live Spores (heat shocked), E6, autoclaved dye + nutrient medium, ex 520/em 580, 50° C., 180 min",10694.25
same,Fluorescence intensity (normalized),"[3]; Live Spores, 0, autoclaved dye + nutrient medium, ex 520/em 580, 50° C., 0 min",0
same,Fluorescence intensity (normalized),"[3]; Live Spores, 0, autoclaved dye + nutrient medium, ex 520/em 580, 50° C., 30 min",522.25
same,Fluorescence intensity (normalized),"[3]; Live Spores, 0, autoclaved dye + nutrient medium, ex 520/em 580, 50° C., 60 min",588.75
same,Fluorescence intensity (normalized),"[3]; Live Spores, 0, autoclaved dye + nutrient medium, ex 520/em 580, 50° C., 90 min",779.75
same,Fluorescence intensity (normalized),"[3]; Live Spores, 0, autoclaved dye + nutrient medium, ex 520/em 580, 50° C., 120 min",870
same,Fluorescence intensity (normalized),"[3]; Live Spores, 0, autoclaved dye + nutrient medium, ex 520/em 580, 50° C., 180 min",886.5
